Laboratory results from article PMC10950897, “VCF1 is a p97/VCP cofactor promoting recognition of ubiquitylated p97-UFD1-NPL4 substrates” (Nature Communications, 2024).

Experiments:
[1] = system: p97 (WT, truncations, Y143A); experiment: In vitro binding, StrepTactin pulldown of Strep-HA-VCF1 with purified p97 proteins; parameters: species or system human
Experimental: (§1) All in vitro binding experiments were performed in EBC or RIPA buffer as indicated. Recombinant Biotin-tagged K48-linked poly-ubiquitin chains (2−7) and K48-linked poly-ubiquitin chains (2−16) were purchased from R&D Systems and Enzo Life Science, respectively. Recombinant proteins were incubated with Strep-Tactin Sepharose (IBA), Glutathione agarose (Gold Biotechnology) or […] Fab-trap agarose (ChromoTek) overnight on an end-over-end rotator at 4 °C, washed six times with EBC or RIPA buffer, and resuspended in 2×Laemmli sample buffer. For p97, VCF1 or p47 pulldowns, antibodies (0.5 µg/sample) were coupled to agarose beads, incubated with recombinant proteins or cell lysates and washed with the indicated buffer. To assess p97-UFD1-NPL4 binding to ubiquitylated proteins in total cell extracts, U2OS cells were lysed in EBC buffer supplemented with protease and phosphatase inhibitors, sonicated and incubated on ice for 10 min. Lysates were cleared by centrifugation for 10 min at 16,100 × g. Cell lysate (40 µg) was added to recombinant proteins in EBC buffer, incubated overnight on the rotator with […] Fab-trap agarose (ChromoTek), and beads were washed six times.

[2] = system: p97 with poly-ubiquitylated mEos3.2; experiment: In vitro p97 unfoldase assay (mEos3.2); type: biochemical, human; details: p97 100 nM hexamer, UFD1-NPL4 500 nM, VCF1 300 nM, 37 °C
Experimental: Di-ubiquitin-fused mEos3.2 fluorescent protein (diUb-mEos3.2) and ubiquitylation cascade proteins mUbe1, gpc78-ubc7 fusion and ubiquitin were recombinantly expressed in E. coli and purified as described previously. diUb-mEos3.2 substrate was enzymatically polyubiquitylated as described previously. […] The unfolding activity of p97 was monitored in vitro by measuring the decrease in diUb^n-mEos3.2 fluorescence. For this, diUb^n-mEos3.2 (35 nM), p97 (100 nM hexamer), UFD1-NPL4 (500 nM) and VCF1 (300 nM) were mixed as indicated in Eos assay buffer (50 mM HEPES, pH 7.5; 150 mM KCl; 2 mM MgCl2; 5% glycerol; 1 mM DTT) and pre-warmed to 37 °C for 5 min before ATP (2 mM) was added to start the reaction. Unfolding of red mEos3.2 fluorescence was measured every 15 s in a Varian Cary Eclipse spectrofluorometer (excitation: 500 nm; emission: 520 nm) and normalized to the first value after addition of ATP.

ubiquitin (K48-Ub2-16) = experiment: StrepTactin pulldown of VCF1 with K48-linked ubiquitin chains; ubiquitin interaction alone or in complex with p97; type: binding
Experimental: as §1

[3] = system: p97 with UFD1-NPL4, p47 or FAF1; experiment: In vitro binding with p97 cofactors (GST, StrepTactin, p47, p97 or FLAG pulldown); parameters: species or system human
Experimental: as §1

p97 (His6-p97 Y143A) = experiment: SPR: binding to immobilized His6-p97 Y143A mutant; parameters: species or system human; details: full-length VCF1 up to 100 nM
Experimental: Surface Plasmon Resonance (SPR)
All SPR experiments were performed at 25 °C on a Biacore T200 instrument equipped with CM5 or CM7 sensor chips (Cytiva, Uppsala, Sweden). SPR running buffers and amine-coupling reagents (N-ethyl-N’-(3-dimethlyaminoproply)carbodiimide (EDC), N-hydroxysuccinimide (NHS), and ethanolamine HCl) were purchased from Cytiva. 1x PBS-P (11.9 mM NaH2PO4-Na2HPO4, pH 7.4; 137 mM NaCl; 2.7 mM KCl; 0.005% surfactant P20) supplemented with 0.5 mM TCEP was used as running buffer for the immobilization and the binding experiments with Strep-HA-VCF1 full-length proteins. For the VCF1 C-terminal peptide binding studies, 2% DMSO was additionally included in the running buffer. Eight solvent correction samples ranging from 1.5% DMSO to 2.8% DMSO prepared in either PBS-P, 0.5 mM TCEP or Tris-based buffer were used to correct buffer/DMSO mismatches. […] The dissociation rate of the p97-VCF1 complexes was monitored for 400 s. […] Binding experiments were measured in triplicates. […] The equilibrium dissociation contants, Kd, were determined by plotting the equilibrium responses levels (Req) against […] and fitting to a steady-state model.

## VCF1: human FAM104A isoform 1, 186 amino acids (UniProt Q969W3); recombinant Strep-HA-tagged
[1]; full-length and truncated His6-p97 proteins
  p97 domain bound: interacts with the p97 N-domain
[1]; purified His6-p97 WT, RIPA buffer
  in vitro interaction with p97: readily interacted in vitro
[2]
  effect on p97-UFD1-NPL4-mediated unfolding of mEos3.2: did not accelerate the already highly efficient p97-UFD1-NPL4-mediated unfolding of poly-ubiquitylated mEos3.2 in vitro
Ubiquitin (K48-Ub2-16)
  interaction with ubiquitin: neither in isolation nor in complex with p97 did VCF1 display detectable interaction with ubiquitin
[3]; StrepTactin pulldown
  co-purification of UFD1-NPL4 with immobilized VCF1: dependent on the presence of p97 and the p97-binding proficiency of VCF1
[3]; VCF1:p47 ratio approx. 1:3
  VCF1 in p47 IP: little if any VCF1 is detectable in the p47 IP
[3]; VCF1:p47 ratio approx. 2:1
  VCF1 in p47 IP: VCF1 now becomes detectable in p47 IPs
[3]; VCF1:p47 ratio approx. 8:1
  competition with p47 for p97: more efficiently outcompetes p47 binding to p97
[3]; high/increasing concentrations
  displacement of p97-bound cofactors: displaced p47 and UFD1-NPL4 from p97 in vitro
[3]; moderate concentrations of VCF1
  simultaneous binding with UFD1-NPL4, p47 or FAF1 to p97: clearly permissive for the simultaneous binding
[3]; purified Strep-HA-VCF1, no p97
  p97-independent enrichment in UFD1 pulldowns: modest p97-independent enrichment
[3]; purified proteins, no p97
  direct interaction with UFD1-NPL4: did not directly interact with UFD1-NPL4
p97 (His6-p97 Y143A)
  binding to p97 Y143A (in words): did not show detectable binding affinity
p97 (His6-p97 Y143A); listed as Strep-HA-VCF1 WT
  binding to p97 Y143A (in words): no dose-dependent response was observed
